Test results from US9034886B2, “4-aminoquinazoline derivatives and uses thereof” (Shanghai Institute of Pharmaceutical Industry, priority 2011, dated 2015).

Legend:
HDACs = assay: In vitro inhibition of HDACs (HDAC Inhibitor Drug Screening Kit, Biovision K340-100); format: biochemical; settings: for inhibitory activity on HDACs compared with MS-275: concentrations of 2 mM, 200 μM, and 40 μM
Experimental: The in vitro inhibitory activities of the compounds towards HDACs were tested according to the instructions in the HDAC Inhibitor Drug Screening Kit (Biovision/Catalog #K340-100).
(1) The compounds to be tested were each individually prepared as 2 mM, 200 μM and 40 μM solutions and their inhibitory activities at these concentrations were tested.

[1] = system: Jurkat E6-1 human T-cell lymphoma; assay: In vitro anti-proliferative effect, CCK-8 method, Jurkat E6-1; format: cell-based; settings: Homo sapiens, Jurkat E6.1
Experimental: (§1) The inhibitory activities of the compounds towards Hut78 T lymphocytic leukemia cells, Jurkat E6-1 human T-cell lymphoma, PANC-1 human pancreatic cancer cells, A549 human lung cancer cells, K562 human chronic myelogenous leukemia cells, Hep3B2.1-7 human liver cancer cells, MDA-MB-435s human breast cancer cells. Colo320 human colorectal cancer cell lines, and PC-3 human prostate cancer at two concentrations of 100 μM and 10 μM were determined. The inhibition percentages were obtained through CCK-8 method.

[2] = system: Hep3B2.1-7 human liver cancer cells; assay: In vitro anti-proliferative effect, CCK-8 method, Hep3B; format: cell-based; settings: Homo sapiens, Hep3B cell strain, CCK-8 method; for inhibition at 10 µM: compound at 10 μM; for inhibition at 100 µM: compound at 100 μM
Experimental: as §1

[3] = system: Hut78 T lymphocytic leukemia cells; assay: In vitro anti-proliferative effect, CCK-8 method, Hut78; format: cell-based; settings: Homo sapiens, HuT78, read-out: Hut-78 (inhibition %)
Experimental: as §1

[4] = system: MDA-MB-435s human breast cancer cells; assay: In vitro anti-proliferative effect, CCK-8 method, MDA-MB-435s; format: cell-based; settings: Homo sapiens, MDA-MB-435S
Experimental: as §1

[5] = system: Colo320 human colorectal cancer cell lines; assay: In vitro anti-proliferative effect, CCK-8 method, Colo320; format: cell-based; settings: Homo sapiens, COLO 320, Colo320 cell strain, CCK-8 method; for inhibition at 10 µM: compound at 10 μM; for inhibition at 100 µM: compound at 100 μM
Experimental: as §1

[6] = system: PANC-1 human pancreatic cancer cells; assay: In vitro anti-proliferative effect, CCK-8 method, PANC-1; format: cell-based; settings: Homo sapiens, PANC-1
Experimental: as §1

[7] = system: K562 human chronic myelogenous leukemia cells; assay: In vitro anti-proliferative effect, CCK-8 method, K562; format: cell-based; settings: Homo sapiens, K562
Experimental: as §1

[8] = Maximum tolerance dose through intragastrical administration; format: in vivo; settings: mice, administrated intragastrically
Experimental: Forty ICR mice, half female and half male, weighing […] were divided into four groups, 10 mice in each group. After the mice were fasted for 6 h, the compound to be tested was administrated intragastrically to each group at a volume of 0.3 ml/10 g by using a sterile plastic syringe. General physical signs and the deaths of the animals were record at 1, 2 and 4 h after the administration. The animals were then observed continuously for 14 days and their weights, physical signs and deaths were observed and recorded every day. Dead animals were dissected to see if there was any visible pathological change in the animal's viscera and pathological examination was performed on suspicious tissues and organs. A part of the experimental results is as follows.

[9] = system: A549 human lung cancer cells; assay: In vitro anti-proliferative effect, CCK-8 method, A549; format: cell-based; settings: Homo sapiens, A549
Experimental: as §1

[10] = system: PC-3 human prostate cancer; assay: In vitro anti-proliferative effect, CCK-8 method, PC-3; format: cell-based; settings: Homo sapiens, PC-3 cell strain, CCK-8 method; for inhibition at 10 µM: compound at 10 μM; for inhibition at 100 µM: compound at 100 μM
Experimental: as §1

HDAC1 = HDAC1 (Homo sapiens (Human), UniProt Q13547); assay: In vitro inhibition of subtype HDAC1 (HDAC1 Inhibitor Drug Screening Kit, Biovision); format: biochemical; settings: for inhibition at 1 µM / inhibition at 10 µM: read-out: % Inhibition towards HDAC1
Experimental: The in vitro inhibitory activities of the compounds towards the subtype HDAC1 were tested according to the instructions in the HDAC1 Inhibitor Drug Screening Kit (Biovision).
(1) The compounds to be tested were each individually prepared as 10 μM and 1 μM solutions and their inhibitory activities at these concentrations were tested.
Each dilution sample was placed in two wells and the enzyme inhibition IC50 of the compound was tested.

Sequence of HDAC1 (Q13547 whole entry): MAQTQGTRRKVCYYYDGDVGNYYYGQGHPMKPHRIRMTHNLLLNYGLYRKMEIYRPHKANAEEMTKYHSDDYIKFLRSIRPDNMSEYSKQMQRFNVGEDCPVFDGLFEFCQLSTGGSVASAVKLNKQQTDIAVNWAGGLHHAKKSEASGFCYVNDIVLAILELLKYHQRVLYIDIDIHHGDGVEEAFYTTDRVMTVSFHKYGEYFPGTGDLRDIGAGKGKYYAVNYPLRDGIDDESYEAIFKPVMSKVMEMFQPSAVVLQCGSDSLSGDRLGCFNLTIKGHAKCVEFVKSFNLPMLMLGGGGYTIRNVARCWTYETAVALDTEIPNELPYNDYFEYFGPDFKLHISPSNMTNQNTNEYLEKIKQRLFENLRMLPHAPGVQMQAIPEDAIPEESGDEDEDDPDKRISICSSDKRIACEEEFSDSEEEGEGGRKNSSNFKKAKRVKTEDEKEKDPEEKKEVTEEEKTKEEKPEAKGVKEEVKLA

SMILES	Inhibition percentage (%) towards HDACs (HDACs; 40 μM)	inhibition at 10 µM [1]	inhibition at 100 µM [1]	inhibition at 10 µM [2]	inhibition at 100 µM [2]	inhibition at 10 µM [3]	inhibition at 100 µM [3]	inhibition at 10 µM [4]	inhibition at 100 µM [4]	inhibition at 10 µM [5]	inhibition at 100 µM [5]	inhibition at 10 µM [6]	inhibition at 100 µM [6]	inhibition at 10 µM [7]	inhibition at 100 µM [7]	maximum tolerance dose [8]	inhibition at 10 µM [9]	inhibition at 100 µM [9]	inhibition at 10 µM [10]	inhibition at 100 µM [10]	further results
Nc1cnccc1NC(=O)c1ccc(Nc2ncnc3ccccc23)cc1 [Compound V-2]	17.6%	58.5%	85.9%	31.2%	53.6%	63.4%	82.8%	35.8%	86.9%	39.6%	92.9%	20.7%	74.1%	21%	64.4%	over 2000 mg/kg	65.6%	84.8%	90.3%	92.4%	Inhibition percentage (%) towards HDACs (HDACs; 200 μM): 28.0%; Inhibition percentage (%) towards HDACs (HDACs; 2 mM): 77.1%
COc1cc2ncnc(Nc3ccc(C(=O)Nc4ccncc4N)cc3)c2cc1OC [Compound V-4]	36.3%	5.4%	23.7%	-10.2%	-12.1%	66.4%	95.8%	-20.7%	-10.4%	7.1%	16.8%	14.4%	11.9%	-1.3%	38.1%	over 5000 mg/kg	-43.9%	-19.4%	5.2%	15.9%	IC50 (HDACs): 3.29 µM; inhibitory activity according to in vitro IC50 value against HDACs compared with MS-275 (HDACs): better inhibitory activities than MS-275; Inhibition percentage (%) towards HDACs (HDACs; 200 μM): 70.3%; Inhibition percentage (%) towards HDACs (HDACs; 2 mM): 85.3%; inhibitory activity on HDACs compared with MS-275 (HDACs): significantly stronger inhibitory activities than MS-275
COc1ccc2ncnc(Nc3ccc(C(=O)Nc4ccccc4N)cc3)c2c1 [Compound V-5, N-(2-aminophenyl)-4-(6-methoxyquinazoline-4-amino)benzamide]	2.8%	62.2%	87.9%	7.3%	66.6%	15%	43.9%	-14.3%	84.1%	13%	45.3%	10.5%	45.9%	49.4%	83.2%	over 2000 mg/kg	-44.3%	-13.1%	0%	66.7%	IC50 (HDACs): 7.79 µM; Inhibition percentage (%) towards HDACs (HDACs; 200 μM): 16.8%; Inhibition percentage (%) towards HDACs (HDACs; 2 mM): 36.7%
COc1ccc2ncnc(Nc3ccc(C(=O)Nc4cc(F)ccc4N)cc3)c2c1 [Compound V-6, N-(2-amino-5-fluorophenyl)-4-(6-methoxyquinazoline-4-amino)benzamide]	34.5%	27.2%	93.3%	-7%	57.5%	15.5%	66.6%	8%	79.1%	-5.5%	59.2%	16.9%	19.7%	53.6%	87.2%	over 5000 mg/kg	-16.9%	45.7%	23.7%	56%	inhibition at 1 µM (HDAC1): 6.47%; inhibition at 10 µM (HDAC1): 50.1%; IC50 (HDACs): 1.83 µM; inhibitory activity according to in vitro IC50 value against HDACs compared with MS-275 (HDACs): better inhibitory activities than MS-275; Inhibition percentage (%) towards HDACs (HDACs; 200 μM): 58.0%; Inhibition percentage (%) towards HDACs (HDACs; 2 mM): 87.1%; inhibitory activity on HDACs compared with MS-275 (HDACs): significantly stronger inhibitory activities than MS-275
Nc1cnccc1NC(=O)c1ccc(CNc2ncnc3ccccc23)cc1 [Compound V-26]	11.4%	76.9%	95.1%	11.7%	63.5%	79.6%	86.9%	16.6%	73.6%	-0.2%	44.4%	5.1%	40.8%	54%	88.2%	–	4.2%	63.7%	8.7%	52.6%	inhibition at 1 µM (HDAC1): 46.4%; inhibition at 10 µM (HDAC1): 88.4%; inhibitory activity against HDAC1 compared with MS-275 (HDAC1; both concentrations 10 μM and 1 μM): superior to that of MS-275; Inhibition percentage (%) towards HDACs (HDACs; 200 μM): 40.2%; Inhibition percentage (%) towards HDACs (HDACs; 2 mM): 82.4%
Nc1ccccc1NC(=O)c1ccc(CNc2ncnc3c(F)cccc23)cc1 [Compound V-43, N-(2-aminophenyl)-4-[(8-fluoroquinazoline-4-amino)methyl]benzamide]	–	69.1%	96.8%	21.2%	58.8%	75.7%	89.6%	18.8%	86.4%	19.1%	59.4%	3.1%	35.9%	13.8%	60.8%	over 5000 mg/kg	41.2%	85.5%	81.4%	89.4%	–
CC(=O)Nc1ccc2ncnc(NCc3ccc(C(=O)Nc4ccccc4N)cc3)c2c1 [Compound V-46, N-(2-aminophenyl)-4-[(6-acetamidoquinazoline-4-amino)methyl]benzamide]	–	14.8%	1.9%	17.5%	-5%	16.4%	93.4%	16.4%	4.1%	13.7%	-9%	8.1%	70.4%	27.3%	18.9%	over 2000 mg/kg	7.7%	4.1%	-1.7%	-2.4%	–
CC(=O)Nc1ccc2ncnc(NCc3ccc(C(=O)Nc4ccncc4N)cc3)c2c1 [Compound V-47]	–	59.4%	76.6%	11.2%	19.2%	9.9%	88.3%	21.8%	29.2%	11%	6%	2.8%	43%	58%	62.1%	over 5000 mg/kg	9.4%	8%	7.2%	12.8%	–
